Laboratory results from US20250381179A1, “CHROMAN-BASED COMPOUNDS FOR TREATING CANCER” (priority 2024, published 2025).

How the values were obtained:
CYP2D6 = CYP2D6 (Homo sapiens, UniProt P10635); assay: CYP2D6 direct inhibition; type: in vitro ADME; conditions: highest concentration evaluated (10 μM)
CYP2D6, sequence (P10635 whole entry): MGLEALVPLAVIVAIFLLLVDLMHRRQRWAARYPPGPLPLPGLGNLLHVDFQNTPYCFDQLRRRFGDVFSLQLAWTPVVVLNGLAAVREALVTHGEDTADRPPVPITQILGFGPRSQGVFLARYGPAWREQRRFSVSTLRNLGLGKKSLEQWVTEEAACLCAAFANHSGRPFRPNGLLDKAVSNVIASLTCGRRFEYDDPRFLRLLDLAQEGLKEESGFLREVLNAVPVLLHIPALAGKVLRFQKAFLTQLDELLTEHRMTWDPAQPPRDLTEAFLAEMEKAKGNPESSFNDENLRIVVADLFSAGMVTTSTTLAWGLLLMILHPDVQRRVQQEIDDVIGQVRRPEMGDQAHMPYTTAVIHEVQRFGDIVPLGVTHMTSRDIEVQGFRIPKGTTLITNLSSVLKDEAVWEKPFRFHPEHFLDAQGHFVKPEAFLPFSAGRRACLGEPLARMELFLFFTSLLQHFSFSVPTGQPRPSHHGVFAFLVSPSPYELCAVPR

O=C1CC[C@H](N2Cc3cc(N4CCN(CC5CCN(c6ccc([C@@H]7c8ccc(O)cc8OC[C@@H]7c7ccccc7)cc6F)CC5)CC4)ccc3C2=O)C(=O)N1 [compound (1-g), (S)-3-(5-(4-((1-(2-fluoro-4-((3S,4R)-7-hydroxy-3-phenylchroman-4-yl)phenyl)piperidin-4-yl)methyl)piperazin-1-yl)-1-oxoisoindolin-2-yl)piperidine-2,6-dione]
CYP2D6 direct inhibition (CYP2D6): did not directly inhibit | highest non-severely-toxic dose (HNSTD) (both, dog, in vivo, po, 28 day): 45 mg/kg/day | off-target adverse toxicities (dog, in vivo): no off-target adverse toxicities observed | key organ effects (dogs, 28-day GLP): considered on target pharmacological effects
